Assay results: ChEMBL document CHEMBL1201862, “PubChem BioAssay data set” (2004)
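Values below derive from 48-hour exposures of cells grown in 96-well plates, with endpoints linearly interpolated between the two concentrations bracketing the appropriate inhibition level. At the GI50, growth is halved.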 Activity calls are given as the source filed them. Cut-off read from the data, not from the text of the source: active = GI50 up to about 1.1 µM and inactive = higher.

How the values were obtained:
Test in all cases: NCI anticancer screen, dose series, 48 h
[1] = tested on: NCI-H460
[2] = tested on: RPMI-8226
[3] = tested on: A549
[4] = tested on: LOX IMVI
[5] = tested on: DU-145
[6] = tested on: U-251
[7] = tested on: HOP-62
[8] = tested on: IGROV-1
[9] = tested on: ACHN
[10] = tested on: MDA-MB-231
[11] = tested on: BT-549
[12] = tested on: SF-268
[13] = tested on: NCI/ADR-RES
[14] = tested on: EKVX
[15] = tested on: NCI-H522
[16] = tested on: CAKI-1
[17] = tested on: OVCAR-4
[18] = tested on: T47D
[19] = tested on: SW-620
[20] = tested on: SR

Row | Structure (SMILES) | GI50 [1] | GI50 [2] | GI50 [3] | GI50 [4] | GI50 [5] | GI50 [6] | GI50 [7] | GI50 [8] | GI50 [9] | GI50 [10] | GI50 [11] | GI50 [12] | GI50 [13] | GI50 [14] | GI50 [15] | GI50 [16] | GI50 [17] | GI50 [18] | GI50 [19] | GI50 [20]
1 | c1ccc(CCN2CCCCCC2)nc1 | > 100 µM (inactive) | > 100 µM (inactive) | > 100 µM (inactive) | > 100 µM (inactive) | > 100 µM (inactive) | > 100 µM (inactive) | > 100 µM (inactive) | > 100 µM (inactive) | > 100 µM (inactive) | > 100 µM (inactive) | > 100 µM (inactive) | > 100 µM (inactive) | > 100 µM (inactive) | 66.8 µM (inactive) | > 100 µM (inactive) | > 100 µM (inactive) | > 100 µM (inactive) | > 100 µM (inactive) | > 100 µM (inactive) | 
2 | COc1ccccc1C(=O)N(C)c1ccc(Cl)c(C(=O)OC(C)C)c1 | 42 µM (inactive) | 39.4 µM (inactive) | 49.9 µM (inactive) | 87.3 µM (inactive) | 42.5 µM (inactive) | 67.8 µM (inactive) |  | > 100 µM (inactive) | 84.9 µM (inactive) | > 100 µM (inactive) | 33 µM (inactive) | 95.9 µM (inactive) | 52.1 µM (inactive) | 44.2 µM (inactive) | 39.5 µM (inactive) | > 100 µM (inactive) | 35.6 µM (inactive) | 23.8 µM (inactive) | 46.6 µM (inactive) | 
3 | CC1(CC(=O)OC(C#C[Si](C)(C)C)Cc2ccccc2)OCCO1 (stereo not drawn) |  |  | > 100 µM (inactive) | > 100 µM (inactive) | > 100 µM (inactive) | > 100 µM (inactive) | > 100 µM (inactive) | > 100 µM (inactive) | > 100 µM (inactive) | > 100 µM (inactive) | > 100 µM (inactive) | > 100 µM (inactive) | > 100 µM (inactive) | > 100 µM (inactive) | > 100 µM (inactive) | > 100 µM (inactive) | > 100 µM (inactive) | > 100 µM (inactive) | > 100 µM (inactive) | 
4 | O=C1C2C(C(=O)N1c1ccccc1)C1(c3ccccc3)CCC2(C(=O)c2ccccc2)O1 (stereo not drawn) | > 10 µM (inactive) | > 10 µM (inactive) | > 10 µM (inactive) | > 10 µM (inactive) | > 10 µM (inactive) | > 10 µM (inactive) | > 10 µM (inactive) | > 10 µM (inactive) | > 10 µM (inactive) | > 10 µM (inactive) | > 10 µM (inactive) | > 10 µM (inactive) | > 10 µM (inactive) | > 10 µM (inactive) | > 10 µM (inactive) | > 10 µM (inactive) | > 10 µM (inactive) | > 10 µM (inactive) | > 10 µM (inactive) | 
5 | COc1cc(C2c3cc4c(cc3[C@@H](Nc3ccc(N)cc3)C3COC(=O)[C@H]23)OCO4)cc(OC)c1O (stereo partly drawn) | 0.0557 µM (active) | 0.425 µM (active) | 0.137 µM (active) | 0.395 µM (active) | 0.121 µM (active) | 0.401 µM (active) | 0.363 µM (active) | 3.35 µM (inactive) | 1.25 µM (inactive) | 12.3 µM (inactive) | 2.5 µM (inactive) | 1.63 µM (inactive) | 3.75 µM (inactive) | 3.64 µM (inactive) | 2.22 µM (inactive) | 0.446 µM (active) | 24.5 µM (inactive) |  | 2.14 µM (inactive) | 205 nM (active)
6 | O=[N+]([O-])c1ccc(-c2csc3nc(-c4ccccc4)nn23)cc1 |  | > 100 µM (inactive) | > 100 µM (inactive) | > 100 µM (inactive) | > 100 µM (inactive) | 39.8 µM (inactive) | 43.9 µM (inactive) | > 100 µM (inactive) | > 100 µM (inactive) | 44 µM (inactive) | > 100 µM (inactive) | 82 µM (inactive) | > 100 µM (inactive) | > 100 µM (inactive) | > 100 µM (inactive) | 72.8 µM (inactive) | > 100 µM (inactive) |  | > 100 µM (inactive) | > 100000 nM (inactive)
7 | CNc1ccc(C(=O)CC(O)CCC(C)C2OC(=O)CC(O)CC(=O)CC(O)CC(O)CC(O)CC(O)CC3(O)CC(O)C(C(=O)N4CCOCC4)C(CC(OC4OC(C)C(O)C(N)C4O)\C=C/C=C\C=C/C=C/C=C/C=C\C=C/C2C)O3)cc1 (stereo not drawn) | 0.27 µM (active) | 0.259 µM (active) | 0.275 µM (active) | 0.243 µM (active) | 0.527 µM (active) | 0.243 µM (active) | 0.351 µM (active) | 0.244 µM (active) | 0.19 µM (active) | 0.236 µM (active) | 0.241 µM (active) | 0.218 µM (active) | 0.43 µM (active) |  | 0.244 µM (active) | 0.227 µM (active) | 0.228 µM (active) |  | 0.475 µM (active) | 296 nM (active)
